Laboratory results reported in ChEMBL document CHEMBL1201862, “PubChem BioAssay data set” (2004).
Activity calls are given as the source filed them.

Experiments:
[1] = target: Protein-tyrosine kinase 2-beta (Homo sapiens, UniProt Q14289);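 further: potency of inhibitors of PYK2 kinase phosphorylation of poly-GT substrate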
[2] = target: T1, Replicative DNA helicase DnaB (Mycobacterium tuberculosis, UniProt P9WMR3); experiment: DnaB intein splicing inhibitors, dose response, biochemical, cell-free fluorescence (AID 449749); format: functional
T1 sequence (P9WMR3 whole entry): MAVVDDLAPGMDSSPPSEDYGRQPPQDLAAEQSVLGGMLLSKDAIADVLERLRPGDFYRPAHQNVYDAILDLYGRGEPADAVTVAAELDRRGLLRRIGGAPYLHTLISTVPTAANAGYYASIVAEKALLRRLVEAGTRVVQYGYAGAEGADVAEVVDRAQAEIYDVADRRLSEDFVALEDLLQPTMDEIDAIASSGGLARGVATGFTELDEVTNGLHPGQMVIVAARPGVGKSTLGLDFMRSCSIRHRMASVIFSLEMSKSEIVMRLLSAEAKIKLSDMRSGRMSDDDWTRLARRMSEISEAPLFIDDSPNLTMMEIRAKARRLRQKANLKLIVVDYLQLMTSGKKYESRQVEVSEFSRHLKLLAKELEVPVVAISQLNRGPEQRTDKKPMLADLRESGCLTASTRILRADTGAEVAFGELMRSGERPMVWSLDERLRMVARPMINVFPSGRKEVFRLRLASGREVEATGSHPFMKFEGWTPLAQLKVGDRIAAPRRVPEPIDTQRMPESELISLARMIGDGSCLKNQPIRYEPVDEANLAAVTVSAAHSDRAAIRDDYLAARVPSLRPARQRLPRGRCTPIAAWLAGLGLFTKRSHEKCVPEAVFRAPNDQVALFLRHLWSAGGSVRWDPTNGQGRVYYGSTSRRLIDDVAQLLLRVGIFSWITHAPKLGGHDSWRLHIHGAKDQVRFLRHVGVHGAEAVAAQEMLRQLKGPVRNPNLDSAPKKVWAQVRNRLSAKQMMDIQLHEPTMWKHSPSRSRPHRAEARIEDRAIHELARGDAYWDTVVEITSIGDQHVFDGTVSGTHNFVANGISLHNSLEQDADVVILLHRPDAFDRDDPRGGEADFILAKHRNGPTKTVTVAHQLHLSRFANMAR

[3] = target: T2, Apoptotic protease-activating factor 1 (Homo sapiens, UniProt O14727); format: functional
T2 sequence (O14727 whole entry): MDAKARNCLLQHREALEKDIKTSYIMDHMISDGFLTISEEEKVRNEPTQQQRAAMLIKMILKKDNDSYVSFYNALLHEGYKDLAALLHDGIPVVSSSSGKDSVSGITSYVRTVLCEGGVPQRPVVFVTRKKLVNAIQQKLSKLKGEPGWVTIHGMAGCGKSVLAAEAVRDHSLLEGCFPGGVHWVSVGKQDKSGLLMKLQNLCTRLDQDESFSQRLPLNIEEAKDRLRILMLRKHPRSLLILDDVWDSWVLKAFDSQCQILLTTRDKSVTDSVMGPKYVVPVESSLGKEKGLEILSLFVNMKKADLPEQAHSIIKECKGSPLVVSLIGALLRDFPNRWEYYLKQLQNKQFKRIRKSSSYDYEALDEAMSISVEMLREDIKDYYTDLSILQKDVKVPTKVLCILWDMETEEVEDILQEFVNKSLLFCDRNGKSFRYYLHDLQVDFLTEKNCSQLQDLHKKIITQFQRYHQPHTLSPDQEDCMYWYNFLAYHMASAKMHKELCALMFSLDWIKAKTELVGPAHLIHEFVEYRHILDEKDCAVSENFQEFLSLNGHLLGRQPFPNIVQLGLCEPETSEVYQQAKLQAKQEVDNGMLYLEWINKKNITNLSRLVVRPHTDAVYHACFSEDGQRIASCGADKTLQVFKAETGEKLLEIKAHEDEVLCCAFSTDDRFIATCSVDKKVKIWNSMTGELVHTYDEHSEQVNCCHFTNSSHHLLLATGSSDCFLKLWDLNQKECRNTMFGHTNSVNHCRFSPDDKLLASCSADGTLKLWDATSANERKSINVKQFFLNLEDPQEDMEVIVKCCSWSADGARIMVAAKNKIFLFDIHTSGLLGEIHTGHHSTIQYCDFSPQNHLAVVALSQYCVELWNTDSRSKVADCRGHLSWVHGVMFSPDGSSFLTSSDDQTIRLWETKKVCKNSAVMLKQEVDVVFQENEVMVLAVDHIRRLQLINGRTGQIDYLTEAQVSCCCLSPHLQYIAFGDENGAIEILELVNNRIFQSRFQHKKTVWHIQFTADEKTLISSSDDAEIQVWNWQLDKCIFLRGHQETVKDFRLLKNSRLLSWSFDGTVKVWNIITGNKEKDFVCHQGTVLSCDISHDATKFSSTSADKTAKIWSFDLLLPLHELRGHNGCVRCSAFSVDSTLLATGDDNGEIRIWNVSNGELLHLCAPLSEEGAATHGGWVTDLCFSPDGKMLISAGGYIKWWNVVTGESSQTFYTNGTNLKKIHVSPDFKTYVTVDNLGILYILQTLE

Protein RecA = target: T3, Protein RecA (Mycobacterium tuberculosis, UniProt P9WHJ3); experiment: Fluorescence Cell-Free Homogeneous Dose Retest to Identify Inhibitors of RecA-Intein Splicing Activity. [Related pubchem assays (depositor defined):AID2097, AID2223, AID489010, AID492950]; format: functional
T3 sequence (P9WHJ3 whole entry): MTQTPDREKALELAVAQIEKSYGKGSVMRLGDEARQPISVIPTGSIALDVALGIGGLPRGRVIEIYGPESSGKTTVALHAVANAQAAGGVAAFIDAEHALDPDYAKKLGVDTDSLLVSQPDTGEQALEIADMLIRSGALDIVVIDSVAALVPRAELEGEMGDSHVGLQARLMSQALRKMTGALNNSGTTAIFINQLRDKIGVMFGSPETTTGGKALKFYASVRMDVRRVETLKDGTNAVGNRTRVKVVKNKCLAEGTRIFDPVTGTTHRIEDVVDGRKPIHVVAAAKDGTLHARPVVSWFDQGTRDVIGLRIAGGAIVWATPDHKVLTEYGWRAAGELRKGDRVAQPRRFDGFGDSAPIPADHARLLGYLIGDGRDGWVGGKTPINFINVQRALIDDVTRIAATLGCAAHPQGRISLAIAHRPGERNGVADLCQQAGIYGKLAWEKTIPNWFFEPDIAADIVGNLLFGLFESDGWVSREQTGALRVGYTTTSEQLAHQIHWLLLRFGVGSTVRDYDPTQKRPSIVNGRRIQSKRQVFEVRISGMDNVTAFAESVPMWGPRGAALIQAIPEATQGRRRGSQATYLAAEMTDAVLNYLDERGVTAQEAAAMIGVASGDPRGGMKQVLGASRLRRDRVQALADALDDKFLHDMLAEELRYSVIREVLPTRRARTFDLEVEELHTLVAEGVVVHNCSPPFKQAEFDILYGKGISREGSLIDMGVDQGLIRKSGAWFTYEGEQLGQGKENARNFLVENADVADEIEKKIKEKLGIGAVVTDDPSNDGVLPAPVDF

[4] = target: T4, Sentrin-specific protease 8 (Homo sapiens, UniProt Q96LD8); format: functional
T4 sequence (Q96LD8 whole entry): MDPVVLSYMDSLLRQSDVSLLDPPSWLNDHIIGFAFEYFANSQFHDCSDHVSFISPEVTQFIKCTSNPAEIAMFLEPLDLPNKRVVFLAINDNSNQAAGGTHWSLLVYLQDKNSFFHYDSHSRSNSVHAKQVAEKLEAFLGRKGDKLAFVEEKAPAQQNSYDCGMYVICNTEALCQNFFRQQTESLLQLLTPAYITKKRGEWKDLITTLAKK

[5] = target: T4, Sentrin-specific protease 8; format: functional; remark: listed apart in the source
[6] = target: Voltage-gated inwardly rectifying potassium channel KCNH2 (Homo sapiens, UniProt Q12809); experiment: concentration-dependent hERG rescue from blockers – cell-based, thallium flux, dose response (AID 2121); format: ADME
Chain of Voltage-gated inwardly rectifying potassium channel KCNH2 (Q12809 whole entry): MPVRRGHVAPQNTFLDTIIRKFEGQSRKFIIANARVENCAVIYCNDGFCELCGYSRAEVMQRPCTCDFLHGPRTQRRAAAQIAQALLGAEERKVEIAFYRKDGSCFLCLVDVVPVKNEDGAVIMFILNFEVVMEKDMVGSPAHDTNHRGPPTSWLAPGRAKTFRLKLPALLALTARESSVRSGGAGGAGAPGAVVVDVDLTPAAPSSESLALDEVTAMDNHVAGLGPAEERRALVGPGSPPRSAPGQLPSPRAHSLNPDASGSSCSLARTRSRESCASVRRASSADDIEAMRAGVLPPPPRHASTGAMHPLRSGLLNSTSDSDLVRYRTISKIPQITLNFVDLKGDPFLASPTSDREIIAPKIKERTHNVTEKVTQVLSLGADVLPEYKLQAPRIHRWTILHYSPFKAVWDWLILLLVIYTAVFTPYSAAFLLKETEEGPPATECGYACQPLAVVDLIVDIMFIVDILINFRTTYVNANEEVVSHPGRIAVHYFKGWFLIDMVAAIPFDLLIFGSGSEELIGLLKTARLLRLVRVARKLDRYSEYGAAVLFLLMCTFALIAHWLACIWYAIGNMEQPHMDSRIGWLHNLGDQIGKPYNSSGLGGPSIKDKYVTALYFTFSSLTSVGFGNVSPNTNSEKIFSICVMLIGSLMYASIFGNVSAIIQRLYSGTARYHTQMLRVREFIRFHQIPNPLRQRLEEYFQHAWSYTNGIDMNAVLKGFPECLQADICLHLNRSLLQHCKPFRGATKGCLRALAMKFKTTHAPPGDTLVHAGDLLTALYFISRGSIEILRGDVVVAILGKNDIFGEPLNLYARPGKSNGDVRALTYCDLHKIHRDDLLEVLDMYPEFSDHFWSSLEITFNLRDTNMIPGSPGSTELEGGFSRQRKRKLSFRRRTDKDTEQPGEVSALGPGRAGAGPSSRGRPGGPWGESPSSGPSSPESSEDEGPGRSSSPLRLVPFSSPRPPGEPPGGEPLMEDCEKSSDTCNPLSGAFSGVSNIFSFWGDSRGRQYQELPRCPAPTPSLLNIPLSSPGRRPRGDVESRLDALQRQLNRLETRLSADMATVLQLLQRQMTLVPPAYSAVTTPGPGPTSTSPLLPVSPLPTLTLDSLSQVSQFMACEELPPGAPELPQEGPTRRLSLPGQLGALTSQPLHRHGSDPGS

Aspartyl aminopeptidase = Aspartyl aminopeptidase (Plasmodium falciparum 3D7, UniProt Q8I2J3); experiment: Counterscreen for inhibitors of M1 and M17 aminopeptidases: QFRET-based biochemical high throughput dose response assay for inhibitors of the Plasmodium falciparum M18 Aspartyl Aminopeptidase (PFM18AAP). [Related PubChem assays: 1619 (Screening assay (M17LAP inhibitors).), 1445 (Screening assay (M1AAP inhibitors).)]
Chain of Aspartyl aminopeptidase (Q8I2J3 whole entry): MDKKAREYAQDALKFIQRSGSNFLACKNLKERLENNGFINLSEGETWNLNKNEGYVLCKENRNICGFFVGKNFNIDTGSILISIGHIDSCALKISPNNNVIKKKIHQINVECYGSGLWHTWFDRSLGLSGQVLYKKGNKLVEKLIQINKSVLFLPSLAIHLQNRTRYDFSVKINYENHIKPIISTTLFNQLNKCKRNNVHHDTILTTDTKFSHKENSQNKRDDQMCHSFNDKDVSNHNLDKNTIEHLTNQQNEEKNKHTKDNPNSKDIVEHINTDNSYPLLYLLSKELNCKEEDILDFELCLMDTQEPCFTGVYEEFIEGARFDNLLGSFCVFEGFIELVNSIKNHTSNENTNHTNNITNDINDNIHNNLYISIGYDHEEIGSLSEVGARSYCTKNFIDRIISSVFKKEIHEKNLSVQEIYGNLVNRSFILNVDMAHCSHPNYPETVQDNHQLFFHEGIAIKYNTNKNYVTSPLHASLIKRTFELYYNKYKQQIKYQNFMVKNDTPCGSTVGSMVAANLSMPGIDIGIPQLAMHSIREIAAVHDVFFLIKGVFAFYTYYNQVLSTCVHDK

Aminopeptidase N = target: T5, Aminopeptidase N (Plasmodium falciparum FcB1/Columbia, UniProt O96935); experiment: malaria alanyl aminopeptidase activity blockers – biochemical, fluorogenic H-Leu-NHMec substrate, 1536-well (AID 1445); design: species or system Plasmodium falciparum 3D7, 3D7
T5 sequence (O96935 whole entry): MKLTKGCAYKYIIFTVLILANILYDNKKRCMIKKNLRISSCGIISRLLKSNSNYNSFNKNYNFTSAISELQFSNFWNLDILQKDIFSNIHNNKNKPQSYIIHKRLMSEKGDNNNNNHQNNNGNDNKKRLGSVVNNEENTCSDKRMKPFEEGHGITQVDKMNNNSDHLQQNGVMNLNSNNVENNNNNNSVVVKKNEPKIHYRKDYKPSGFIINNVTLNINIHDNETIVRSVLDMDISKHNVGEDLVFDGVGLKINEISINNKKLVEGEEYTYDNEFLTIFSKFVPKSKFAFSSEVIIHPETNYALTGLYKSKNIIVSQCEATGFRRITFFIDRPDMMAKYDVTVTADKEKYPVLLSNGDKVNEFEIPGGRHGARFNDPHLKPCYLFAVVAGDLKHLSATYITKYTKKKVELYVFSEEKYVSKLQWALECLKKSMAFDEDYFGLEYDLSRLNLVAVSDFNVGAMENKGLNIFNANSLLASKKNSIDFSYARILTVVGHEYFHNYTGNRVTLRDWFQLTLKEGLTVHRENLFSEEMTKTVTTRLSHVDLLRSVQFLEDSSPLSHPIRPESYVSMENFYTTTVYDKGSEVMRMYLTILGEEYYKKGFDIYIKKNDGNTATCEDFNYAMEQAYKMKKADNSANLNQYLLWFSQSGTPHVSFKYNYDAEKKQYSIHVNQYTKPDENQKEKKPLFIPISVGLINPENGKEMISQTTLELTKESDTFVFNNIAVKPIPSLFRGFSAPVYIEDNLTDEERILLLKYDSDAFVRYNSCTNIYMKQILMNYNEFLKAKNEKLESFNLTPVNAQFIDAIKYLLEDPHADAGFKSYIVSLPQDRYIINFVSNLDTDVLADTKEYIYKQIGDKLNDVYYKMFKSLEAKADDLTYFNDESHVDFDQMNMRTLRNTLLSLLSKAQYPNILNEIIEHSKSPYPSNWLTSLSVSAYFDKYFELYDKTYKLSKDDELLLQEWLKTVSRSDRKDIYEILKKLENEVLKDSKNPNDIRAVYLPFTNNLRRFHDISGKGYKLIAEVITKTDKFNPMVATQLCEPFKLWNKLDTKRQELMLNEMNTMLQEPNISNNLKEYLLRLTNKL

[7] = target: Peroxisome proliferator-activated receptor gamma/Nuclear receptor coactivator 1 (Homo sapiens, UniProt P37231); experiment: (§1) TR-FRET dose response biochemical High Throughput Screening assay for agonists of the steroid receptor coactivator 1 (SRC-1) recruitment by the peroxisome proliferator-activated receptor gamma (PPAR gamma): non-selective agonists. [Related pubchem assays (depositor defined):AID1300, AID1808, AID504735, AID631]; format: protein assay
[8] = target: Peroxisome proliferator-activated receptor gamma/Nuclear receptor coactivator 3 (Homo sapiens, UniProt P37231); experiment: as §1, with “3 (SRC-3)” for “1 (SRC-1)”, “assays: 1301 (Confirmation screen.), 1048 (Primary screen.)]” for “assays (depositor defined):AID1300, AID1808, AID504735, AID631]”; format: functional
Chain of Peroxisome proliferator-activated receptor gamma/Nuclear receptor coactivator 3 (P37231 whole entry): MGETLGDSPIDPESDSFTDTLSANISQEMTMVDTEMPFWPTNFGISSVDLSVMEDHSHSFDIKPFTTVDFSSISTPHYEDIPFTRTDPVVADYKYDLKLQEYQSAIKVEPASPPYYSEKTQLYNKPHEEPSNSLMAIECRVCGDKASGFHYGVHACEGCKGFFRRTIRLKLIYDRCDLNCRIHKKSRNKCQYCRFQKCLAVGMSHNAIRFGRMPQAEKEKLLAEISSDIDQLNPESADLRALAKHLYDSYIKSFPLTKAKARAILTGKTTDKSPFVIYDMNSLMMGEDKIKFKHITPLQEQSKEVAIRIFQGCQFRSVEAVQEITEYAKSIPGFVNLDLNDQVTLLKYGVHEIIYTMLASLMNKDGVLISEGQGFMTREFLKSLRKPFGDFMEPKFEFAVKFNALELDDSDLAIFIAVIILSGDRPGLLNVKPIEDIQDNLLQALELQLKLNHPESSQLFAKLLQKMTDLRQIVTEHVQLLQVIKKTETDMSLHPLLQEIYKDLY
Chain of Peroxisome proliferator-activated receptor gamma/Nuclear receptor coactivator 3 (Q9Y6Q9 whole entry, further chain): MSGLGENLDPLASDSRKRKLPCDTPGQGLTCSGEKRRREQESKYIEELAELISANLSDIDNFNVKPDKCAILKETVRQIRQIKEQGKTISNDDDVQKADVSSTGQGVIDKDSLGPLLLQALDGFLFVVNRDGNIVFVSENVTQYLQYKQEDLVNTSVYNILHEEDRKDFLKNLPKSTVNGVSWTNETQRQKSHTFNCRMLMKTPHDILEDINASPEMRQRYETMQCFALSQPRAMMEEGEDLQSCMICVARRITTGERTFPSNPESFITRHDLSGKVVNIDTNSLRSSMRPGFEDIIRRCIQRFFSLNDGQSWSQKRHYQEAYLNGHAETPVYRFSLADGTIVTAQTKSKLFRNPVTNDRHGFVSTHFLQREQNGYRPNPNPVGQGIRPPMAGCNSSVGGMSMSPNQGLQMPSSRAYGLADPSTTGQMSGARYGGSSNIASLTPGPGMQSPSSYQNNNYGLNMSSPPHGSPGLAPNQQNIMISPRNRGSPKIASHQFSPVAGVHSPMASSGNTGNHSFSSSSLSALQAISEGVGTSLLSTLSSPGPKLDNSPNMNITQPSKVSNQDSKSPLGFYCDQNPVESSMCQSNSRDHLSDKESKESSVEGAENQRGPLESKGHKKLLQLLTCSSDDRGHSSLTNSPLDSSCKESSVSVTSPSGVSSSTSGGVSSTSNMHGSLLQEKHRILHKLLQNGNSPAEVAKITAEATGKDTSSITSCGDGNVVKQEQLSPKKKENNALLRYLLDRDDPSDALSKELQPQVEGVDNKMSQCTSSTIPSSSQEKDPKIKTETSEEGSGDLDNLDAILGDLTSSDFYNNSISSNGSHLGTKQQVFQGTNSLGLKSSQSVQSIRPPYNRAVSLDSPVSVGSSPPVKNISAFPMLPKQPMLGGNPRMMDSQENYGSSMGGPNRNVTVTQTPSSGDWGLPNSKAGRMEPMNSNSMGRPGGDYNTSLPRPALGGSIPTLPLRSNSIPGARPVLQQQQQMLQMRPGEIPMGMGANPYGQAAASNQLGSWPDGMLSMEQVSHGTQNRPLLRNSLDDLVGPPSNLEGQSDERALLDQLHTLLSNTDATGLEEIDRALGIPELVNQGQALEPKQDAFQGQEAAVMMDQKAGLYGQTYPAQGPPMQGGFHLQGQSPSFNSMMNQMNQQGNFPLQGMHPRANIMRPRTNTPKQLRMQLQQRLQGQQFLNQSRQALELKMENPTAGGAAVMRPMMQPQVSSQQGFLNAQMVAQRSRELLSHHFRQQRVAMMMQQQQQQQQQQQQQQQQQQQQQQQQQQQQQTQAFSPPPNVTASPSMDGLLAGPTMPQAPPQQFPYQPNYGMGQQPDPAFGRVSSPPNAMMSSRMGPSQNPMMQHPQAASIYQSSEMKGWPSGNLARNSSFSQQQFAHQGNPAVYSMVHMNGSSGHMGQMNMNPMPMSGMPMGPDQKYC

Procathepsin L = Procathepsin L (Homo sapiens, UniProt P07711); experiment: CTSL1 protease inhibition – biochemical, QFRET, 1536-well, counter-screen for M1/M17 aminopeptidase inhibitor project, dose response (AID 2214)
Chain of Procathepsin L (P07711 whole entry): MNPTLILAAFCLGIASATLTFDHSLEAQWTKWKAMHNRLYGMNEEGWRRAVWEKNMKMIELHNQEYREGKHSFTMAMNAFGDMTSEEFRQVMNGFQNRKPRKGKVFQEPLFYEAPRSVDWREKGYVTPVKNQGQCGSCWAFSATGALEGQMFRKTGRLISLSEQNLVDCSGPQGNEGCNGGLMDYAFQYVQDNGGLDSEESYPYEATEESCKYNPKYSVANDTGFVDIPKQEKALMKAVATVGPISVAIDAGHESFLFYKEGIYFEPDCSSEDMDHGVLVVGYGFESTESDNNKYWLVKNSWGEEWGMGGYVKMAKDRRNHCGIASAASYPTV

[9] = target: Peroxisome proliferator-activated receptor gamma/Nuclear receptor coactivator 2 (Homo sapiens, UniProt P37231); experiment: TR-FRET dose response biochemical High Throughput Screening assay for agonists of the steroid receptor coactivator 2 (SRC-2) recruitment by the peroxisome proliferator-activated receptor gamma (PPAR gamma): non-selective agonists. [Related pubchem assays: 1297, 1032 ]; format: functional
[10] = target: T6, Corticotropin-releasing factor receptor 2/Corticotropin-releasing factor-binding protein (Homo sapiens, UniProt P24387+Q13324); experiment: Dose Response confirmation of uHTS hits for small molecule antagonists of the CRF-binding protein and CRF-R2 receptor complex.; format: functional; settings: read-out: IC50_Mean
T6 sequence (Q13324 whole entry): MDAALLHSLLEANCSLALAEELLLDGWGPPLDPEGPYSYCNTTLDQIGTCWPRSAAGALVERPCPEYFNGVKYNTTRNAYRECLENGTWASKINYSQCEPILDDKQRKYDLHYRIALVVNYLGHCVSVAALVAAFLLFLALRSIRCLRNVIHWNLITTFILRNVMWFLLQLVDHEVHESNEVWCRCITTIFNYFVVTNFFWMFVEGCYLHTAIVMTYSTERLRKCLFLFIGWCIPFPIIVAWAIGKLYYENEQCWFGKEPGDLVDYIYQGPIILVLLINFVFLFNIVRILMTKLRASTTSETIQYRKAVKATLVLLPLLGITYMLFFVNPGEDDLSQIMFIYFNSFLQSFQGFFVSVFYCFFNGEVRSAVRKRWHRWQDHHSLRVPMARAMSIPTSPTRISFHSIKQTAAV
T6 sequence (P24387 whole entry): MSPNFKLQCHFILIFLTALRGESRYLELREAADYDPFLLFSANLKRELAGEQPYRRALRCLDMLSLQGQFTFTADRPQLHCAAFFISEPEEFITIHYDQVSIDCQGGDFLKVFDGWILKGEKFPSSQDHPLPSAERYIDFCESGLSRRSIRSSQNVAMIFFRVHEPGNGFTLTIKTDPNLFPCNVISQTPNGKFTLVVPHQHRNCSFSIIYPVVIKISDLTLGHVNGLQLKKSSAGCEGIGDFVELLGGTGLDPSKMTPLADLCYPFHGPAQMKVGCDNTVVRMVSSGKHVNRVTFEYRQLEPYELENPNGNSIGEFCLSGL

[11] = target: T6, Corticotropin-releasing factor receptor 2/Corticotropin-releasing factor-binding protein; experiment: activators of CRF receptor 2 with binding protein – uHTS hits, confirmation (AID 602473); format: functional; settings: read-out: EC50_Mean

Chain of Protein-tyrosine kinase 2-beta (Q14289 whole entry): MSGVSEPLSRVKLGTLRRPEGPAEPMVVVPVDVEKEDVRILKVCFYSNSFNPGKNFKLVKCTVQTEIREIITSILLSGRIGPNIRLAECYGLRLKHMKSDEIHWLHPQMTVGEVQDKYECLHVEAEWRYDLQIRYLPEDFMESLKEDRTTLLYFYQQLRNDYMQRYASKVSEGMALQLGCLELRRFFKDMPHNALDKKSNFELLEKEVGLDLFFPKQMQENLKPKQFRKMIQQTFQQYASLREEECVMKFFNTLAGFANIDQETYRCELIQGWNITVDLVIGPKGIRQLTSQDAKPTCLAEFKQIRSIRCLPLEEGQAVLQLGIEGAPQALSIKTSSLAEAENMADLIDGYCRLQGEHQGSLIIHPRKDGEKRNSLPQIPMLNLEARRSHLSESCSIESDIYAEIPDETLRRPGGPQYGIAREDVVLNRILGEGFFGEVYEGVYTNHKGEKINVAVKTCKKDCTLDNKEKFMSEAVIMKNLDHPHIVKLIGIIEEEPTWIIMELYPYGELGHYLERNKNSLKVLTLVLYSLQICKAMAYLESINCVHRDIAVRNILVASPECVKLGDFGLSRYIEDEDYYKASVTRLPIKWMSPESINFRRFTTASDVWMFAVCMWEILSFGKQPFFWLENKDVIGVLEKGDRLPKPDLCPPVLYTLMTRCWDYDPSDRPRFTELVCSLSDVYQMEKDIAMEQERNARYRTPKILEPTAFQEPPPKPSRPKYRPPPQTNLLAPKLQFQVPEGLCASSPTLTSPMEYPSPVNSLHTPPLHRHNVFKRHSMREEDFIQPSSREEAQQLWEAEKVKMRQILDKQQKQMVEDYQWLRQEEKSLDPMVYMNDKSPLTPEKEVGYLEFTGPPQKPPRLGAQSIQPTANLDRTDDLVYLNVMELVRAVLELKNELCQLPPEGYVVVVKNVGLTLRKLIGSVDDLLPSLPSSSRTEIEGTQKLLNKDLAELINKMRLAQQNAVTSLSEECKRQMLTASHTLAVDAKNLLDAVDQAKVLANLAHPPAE

## O=C1Cc2ccccc2C(=O)N1Cc1ccccc1
[1]
  IC50: > 69.5 µM (not active)
[2]
  AC50: > 380 µM (inconclusive)
[3]
  IC50: 3.89 µM (active)
Protein RecA
  EC50: 2.04 µM (active)
[4]
  IC50: > 100 µM (inactive)
[5]
  IC50: 1.06 µM (active)

## Cc1onc(-c2ccccc2)c1C(=O)NC(=S)Nc1sc2c(c1C#N)CCC(C)C2 (stereo not given)
[6]
  EC50: 0.86 µM (active)

## O=C1Nc2ccccc2/C1=C1/SC(=S)N(NC(=O)c2cccc(O)c2)C1=O
Aspartyl aminopeptidase
  IC50: 39.5 µM (not active)
Aminopeptidase N
  IC50: 4.08 µM (active)
[7]
  EC50: > 79.4 µM (inactive)
[8]
  EC50: > 79.4 µM (not active)
Procathepsin L
  IC50: 31.8 µM (not active)
[9]
  EC50: 41 µM (not active)
[10]
  IC50: < 0.368 µM (active)
[11]
  EC50: > 53 µM (inactive)
